Earlier results, collected in US20090156670A1 (VENUS REMEDIES LIMITED, priority 2004, published 2009).

What was measured:
[1] = pain elicited by chemical and mechanical stimuli
ICAM-3 = conditions: human neutrophils
CD44 = conditions: human neutrophils
CD31 = conditions: human neutrophils
CD11a = conditions: human neutrophils
[2] = rats
COX-I = COX-I (Homo sapiens, UniProt P23219); conditions: oral form
[3] = tested on: interleukin1β-induced prostaglandin E2 production
[4] = tested on: sodium urate-induced synovitis; conditions: dogs; prophylactically and therapeutically
CD43 = conditions: human neutrophils
[5] = tested on: adjuvant-induced polyarthritis; conditions: rats; prophylactically and therapeutically
CD11b = conditions: human neutrophils
[6] = rheumatoid arthritis patients, long-term (6 months) study

Sequence of COX-I (P23219 24-599): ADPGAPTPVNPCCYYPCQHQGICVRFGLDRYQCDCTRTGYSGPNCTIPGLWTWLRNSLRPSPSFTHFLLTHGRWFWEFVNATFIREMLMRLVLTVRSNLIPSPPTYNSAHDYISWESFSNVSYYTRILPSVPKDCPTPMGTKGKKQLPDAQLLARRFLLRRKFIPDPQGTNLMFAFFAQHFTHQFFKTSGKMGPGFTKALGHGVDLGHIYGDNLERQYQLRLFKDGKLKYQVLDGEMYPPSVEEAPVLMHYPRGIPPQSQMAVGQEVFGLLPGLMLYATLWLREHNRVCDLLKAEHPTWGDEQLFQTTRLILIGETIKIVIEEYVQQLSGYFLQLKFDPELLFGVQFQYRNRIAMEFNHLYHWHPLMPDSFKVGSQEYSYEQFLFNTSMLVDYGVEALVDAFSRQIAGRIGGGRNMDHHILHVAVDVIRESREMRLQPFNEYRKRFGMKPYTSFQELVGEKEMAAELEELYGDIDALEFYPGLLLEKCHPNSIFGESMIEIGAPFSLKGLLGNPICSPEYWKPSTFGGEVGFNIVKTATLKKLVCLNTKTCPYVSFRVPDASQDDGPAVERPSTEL

Compound | analgesic effect compared with indometacin and diclofenac [1] | decrement of ICAM-3 expression (ICAM-3) | CD44 expression (CD44) | CD31 expression (CD31) | CD11a expression (CD11a) | fever induced by brewer's yeast injection [2] | COX-I inhibitor effect (COX-I) | interleukin1β-induced prostaglandin E2 production [3] | activity against sodium urate-induced synovitis [4] | decrement of CD43 expression (CD43) | activity against adjuvant-induced polyarthritis [5] | CD11b expression (CD11b) | neutrophil aggregation induced with anti-CD43 Mab (neutrophil aggregation) | incidence of gastrointestinal intolerance [6] [%]
O=C(O)COC(=O)Cc1ccccc1Nc1c(Cl)cccc1Cl [aceclofenac, 2-[(2,6-dichlorophenyl)amino]phenylacetoxyacetic acid] | nearly equal to or slightly better | slight | unaffected | unaffected | unaffected | markedly suppressed | poor | inhibits | highly active | moderate | highly active | slightly increased | significantly inhibited | 13
O=C(O)Cc1ccccc1Nc1c(Cl)cccc1Cl [diclofenac] | – | – | – | – | – | – | – | – | – | – | – | – | – | 17
